Patent publication US7605270B2, “Polymorphic forms of (S).-tetrahydrofuran-3-yl-3-(3-(3-methoxy-4-(oxazol-5-yl) phenyl) ureido) benzylcarbamate” (Vertex Pharmaceuticals Incorporated, priority 2005, dated 2009)
Structures can show the parent of a compound that is named as a salt.

Key:
IMPDH human type II = IMPDH human type II (Homo sapiens, UniProt P12268); conditions: general statement; disclosed in the Compound 1 patents; cited from earlier work
[1] = Hygroscopicity: water/weight uptake at 90% relative humidity; type: physicochemical; conditions: for water uptake (weight uptake): at 90% relative humidity (RH) at 25° C.; for hygroscopicity (in words): judged from uptake at 90% relative humidity
[2] = Maturation study of Form A1: slurry in solvent, excess solid analysed by XRPD; type: physicochemical; conditions: about 10 mg slurried in 500 μl solvent, shaken at 25-30° C. for 24 hrs
Procedure: X-ray powder diffraction patterns for the samples were acquired on a Bruker AXS/Siemens D5000 diffractometer using CuKα radiation (40 kV, 40 mA), ?-? goniometer, automatic divergence and receiving slits, a graphite secondary monochromator and a scintillation counter. The data were collected over an angular range of 2° to 42° 2? in continuous scan mode using a step size of 0.02° 2? and a step time of 1 second. Samples run under ambient conditions were prepared as flat plate specimens using powder as received without grinding. Approximately 25-50 mg of the sample was gently packed into 12 mm diameter, 0.5 mm deep cavities cut into polished, zero-background (510) silicon wafers (The Gem Dugout, 1652 Princeton Drive, Pennsylvania State College, PA 16803, USA). All specimens were run both stationary and rotated in their own plane during analysis. A further specimen was run using silicon powder as an internal standard to correct for any peak displacement. Samples run under non-ambient conditions were packed into a stainless steel cavity sample holder equipped with a Pt 100 thermocouple for temperature monitoring. Low temperature data were recorded using an Anton Paar TTK450 variable temperature camera attached to the Bruker AXS/Siemens D5000 diffractometer. […] The excess solid was removed by filtration and analysed by XRPD.

COc1cc(NC(=O)Nc2cccc(CNC(=O)O[C@H]3CCOC3)c2)ccc1-c1cnco1 [Compound 1, (S)-tetrahydrofuran-3-yl 3-(3-(3-methoxy-4-(oxazol-5-yl)phenyl)ureido)benzylcarbamate]
IMPDH inhibition (in words) (IMPDH human type II): potent IMPDH inhibitor

COc1cc(NC(=O)Nc2cccc(CNC(=O)O[C@H]3CCOC3)c2)ccc1-c1cnco1 [Form A1, (S)-tetrahydrofuran-3-yl 3-(3-(3-methoxy-4-(oxazol-5-yl)phenyl)ureido)benzylcarbamate]
water uptake (weight uptake) [1]: less than 0.5% | hygroscopicity (in words) [1]: non-hygroscopic | XRPD patterns observed after maturation, all 31 solvents [2]: consistent with the pattern of Form A1

COc1cc(NC(=O)Nc2cccc(CNC(=O)O[C@H]3CCOC3)c2)ccc1-c1cnco1 [Form C3, (S)-tetrahydrofuran-3-yl 3-(3-(3-methoxy-4-(oxazol-5-yl)phenyl)ureido)benzylcarbamate]
water uptake (weight uptake) [1]: 3% | hygroscopicity (in words) [1]: moderately hygroscopic

COc1cc(NC(=O)Nc2cccc(CNC(=O)O[C@H]3CCOC3)c2)ccc1-c1cnco1 [Form E5 HCl salt, (S)-tetrahydrofuran-3-yl 3-(3-(3-methoxy-4-(oxazol-5-yl)phenyl)ureido)benzylcarbamate, HCl salt]
uptake ([1]; at 90% relative humidity): 22 % w/w | hygroscopicity (in words) ([1]; HCl salt): highly hygroscopic
